Experimental data as given in patent US20190256819A1, “PROCESS FOR IMPROVING THE DISSOLUTION BEHAVIOUR OF COMPONENTS IN AQUEOUS SOLUTIONS” (Merck Patent GmbH, priority 2016, published 2019).

Assay: Measurement of dissolution enthalpy by solution calorimetry (TAM IV Microcalorimeter), relative temperature as a function of time
Format: physicochemical
Settings: 250 mg sample in 100 mL water, 25° C., stirring at 500 rpm, ampoule broken; FIGS. 1-4
Procedure: The TAM IV Microcalorimeter was used to detect temperature changes of solutions with an accuracy of 0.001 K, which evolves from the dissolution enthalpy of the substances being tested.
Different formulations of amino acids are placed in an ampoule, surrounded by aqueous solvent. After the ampoule has been ruptured, the temperature change is analyzed.
Experimental Setup: • 250 mg of each sample were filled into a 1 mL crushing ampoule at ambient conditions without any pre-treatment. • The ampoules were closed with a silicone stopper and wax and inserted into the stirrer of the solution calorimeter and immersed into 100 mL water. • The system was then equilibrated at 25° C. while stirring at 500 rpm before the ampoule was broken. • Calibrations with a heat pulse of 2.5 J at a power of 250 mW were performed before and after the break. • For data evaluation, the slope of the baseline before breaking the sample was set to zero by differentiation of the curve, shift to zero and re-integration.
For spray dried multicomponent amino acids the enthalpy of solution measurement have been carried out on a special ampule calorimeter equipped with an isothermal shell. In the course of the calorimetry measurement, the stability of the temperature-control system was maintained constant to within 10^−4K. All experiments were performed three times and were reproducible within 5%.

Compound | Relative temperature as a function of time on dissolution (enthalpy of solution)
CC(C)C[C@H](N)C(=O)O [L-leucine] | steady decrease in the temperature
O=C(O)[C@@H]1CCCN1 [L-proline] | strong increase in the temperature is observed followed by a continous decrease
